In one experiment the target is T1, cPLA2 (Homo sapiens, UniProt P47712).
T1 sequence (P47712 1-749): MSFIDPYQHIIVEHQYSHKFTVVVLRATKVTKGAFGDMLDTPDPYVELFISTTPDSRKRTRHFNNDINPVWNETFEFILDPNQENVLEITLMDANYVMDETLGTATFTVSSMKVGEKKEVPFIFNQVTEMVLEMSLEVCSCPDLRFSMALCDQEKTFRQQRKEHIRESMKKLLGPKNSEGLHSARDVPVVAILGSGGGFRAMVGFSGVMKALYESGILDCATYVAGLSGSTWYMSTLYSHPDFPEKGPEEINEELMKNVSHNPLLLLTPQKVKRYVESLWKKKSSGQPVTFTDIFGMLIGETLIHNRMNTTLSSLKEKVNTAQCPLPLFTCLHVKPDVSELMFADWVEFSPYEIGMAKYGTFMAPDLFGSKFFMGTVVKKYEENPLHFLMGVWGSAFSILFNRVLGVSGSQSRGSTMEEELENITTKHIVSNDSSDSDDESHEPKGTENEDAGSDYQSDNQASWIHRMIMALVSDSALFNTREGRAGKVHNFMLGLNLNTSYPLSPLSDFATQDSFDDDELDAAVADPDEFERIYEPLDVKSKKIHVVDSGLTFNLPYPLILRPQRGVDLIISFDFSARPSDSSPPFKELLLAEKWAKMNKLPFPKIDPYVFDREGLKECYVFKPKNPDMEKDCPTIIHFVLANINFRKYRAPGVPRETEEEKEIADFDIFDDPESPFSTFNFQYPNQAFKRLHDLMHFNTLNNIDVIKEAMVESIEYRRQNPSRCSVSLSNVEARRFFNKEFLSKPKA
Nature of the experiment: Coumarin Assay (cPLA2 inhibition). Format: biochemical. Conditions: for inhibition at 0.85 µM: CONCENTRATION 0.85 micromolar; for inhibition at 30 µM: CONCENTRATION 30 micromolar. Summed up: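 Percent inhibition at the stated concentration, from the rate of 460 nm emission rise (360 nm excitation) per minute. Reaction started by adding 4 μg enzyme to compound and 60 μM 7-hydroxycoumarinyl 6-heptenoate in Hepes buffer pH 7.5 with 1 mM EDTA.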

For experiment [1], the system named is Rat Carrageenan-Induced Footpad Edema. The experiment is described as follows: Rat Carrageenan-Induced Footpad Edema Test. Format: in vivo, male Sprague Dawley rats. The settings on record: Rattus norvegicus, 3 h, footpad volume 3 hours after carrageenan, read-out: PERCENT INHIBITION; for inhibition in vivo at 2 mg/kg / inhibition in vivo at 10 mg/kg: po, PO; for inhibition in vivo at 5 mg/kg: iv, IV.

The mark [2] stands for this setting: CONCENTRATION 2.5 micromolar, read-out: PERCENT INHIBITION @.
The mark [3] stands for this setting: CONCENTRATION 100 micromolar, read-out: PERCENT INHIBITION @.

Eleven compounds from patent US6500853B1, “Inhibitors of phospholipase enzymes” (Genetics Institute, LLC, priority 1998, dated 2002) can be followed below.

For orientation: inhibition means the relative decrease from the control value, in per cent. With `COc1cc(C(=O)NS(=O)(=O)c2ccccc2C)ccc1Cc1cn(C(c2ccccc2)c2ccccc2)c2ccc(Br)cc12` [Example 38, N-{4-[(1-benzhydryl-5-bromo-1H-indol-3-yl)methyl]-3-methoxybenzoyl}-2-methylbenzenesulfonamide], the inhibition at 0.3 µM at cPLA2 (CONCENTRATION 0.3 micromolar, read-out: PERCENT INHIBITION @) stood at 50%. Besides, the inhibition at 0.45 µM at cPLA2 (CONCENTRATION 0.45 micromolar, read-out: PERCENT INHIBITION @) was 50%. The inhibition at 0.57 µM at cPLA2 (CONCENTRATION 0.57 micromolar, read-out: PERCENT INHIBITION @) is 50%. Further, the inhibition at 0.59 µM on cPLA2 (CONCENTRATION 0.59 micromolar, read-out: PERCENT INHIBITION @) was 50%. The inhibition at 0.6 µM on cPLA2 (CONCENTRATION 0.6 micromolar, read-out: PERCENT INHIBITION @) was found to be 50%. Moreover, at cPLA2 (CONCENTRATION 0.64 micromolar, read-out: PERCENT INHIBITION @), the inhibition at 0.64 µM was determined as 50%. The inhibition at 0.7 µM at cPLA2 (CONCENTRATION 0.7 micromolar, read-out: PERCENT INHIBITION @) came out at 50%. For the same compound, the inhibition at 0.85 µM at cPLA2 (read-out: PERCENT INHIBITION @) amounted to 50%. The inhibition at 1 µM at cPLA2 (CONCENTRATION 1 micromolar, read-out: PERCENT INHIBITION @) was determined as 50%. In experiment [1], the inhibition in vivo at 2 mg/kg is 15.4% and the inhibition in vivo at 10 mg/kg was determined as 26.3%.

Regarding `COc1cc(C(=O)NS(=O)(=O)c2ccccc2Cl)ccc1Cc1cn(C(c2ccccc2)c2ccccc2)c2ccc(NC(=O)OC3CCCC3)cc12` [Example 28, cyclopentyl N-{1-benzhydryl-3-[4-({[(2-chlorophenyl)sulfonyl]amino}carbonyl)-2-methoxybenzyl]-1H-indol-5-yl}carbamate], the inhibition at 4.2 µM on cPLA2 (CONCENTRATION 4.2 micromolar, read-out: PERCENT INHIBITION @) is 50%. Besides, the inhibition at 4.4 µM on cPLA2 (CONCENTRATION 4.4 micromolar, read-out: PERCENT INHIBITION @) turned out to be 50%. Further, the inhibition in vivo at 5 mg/kg in experiment [1] was 0.29%.

Consider `COc1cc(C(=O)NS(=O)(=O)C(F)(F)F)ccc1Cc1cn(C(c2ccccc2)c2ccccc2)c2ccc(NS(C)(=O)=O)cc12` [Example 41, N-[4-({1-benzhydryl-5-[(methylsulfonyl)amino]-1H-indol-3-yl}methyl)-3-methoxybenzoyl](trifluoro)methanesulfonamide], for which the inhibition at 2.5 µM at cPLA2 (setting [2]) came out at 50%. On cPLA2 (CONCENTRATION 3.8 micromolar, read-out: PERCENT INHIBITION @), the inhibition at 3.8 µM came to 50%. For the same compound, the inhibition at 4.3 µM at cPLA2 (CONCENTRATION 4.3 micromolar, read-out: PERCENT INHIBITION @) was found to be 50%. Also, on cPLA2 (CONCENTRATION 5 micromolar, read-out: PERCENT INHIBITION @), the inhibition at 5 µM stood at 50%. In experiment [1], the inhibition in vivo at 5 mg/kg was found to be 10.1%.

On to `O=C(O)c1cscc1NC(=O)c1cn(C(c2ccccc2)c2ccccc2)c2ccc(NC(=O)C3CCCC3)cc12` [Example 99, 4-[({1-benzhydryl-5-[(cyclopentylcarbonyl)amino]-1H-indol-3-yl}carbonyl)amino]-3-thiophenecarboxylic acid], for which the inhibition at 30 µM on cPLA2 (read-out: PERCENT INHIBITION @) came to 13%. In addition, the “PERCENT INHIBITION @” value at cPLA2 (CONCENTRATION 100 micromolar) stood at 50%. Also, the inhibition at 100 µM at cPLA2 (setting [3]) is 38%. In experiment [1], the inhibition in vivo at 2 mg/kg stood at 24.5% and the inhibition in vivo at 10 mg/kg worked out at 22.8%.

Take `COc1cc(C(=O)O)ccc1Cc1cn(C(c2ccccc2)c2ccccc2)c2ccc(C)cc12` [Example 15, 4-[(1-benzhydryl-5-methyl-1H-indol-3-yl)methyl]-3-methoxybenzoic acid]: the inhibition at 0.65 µM at cPLA2 (CONCENTRATION 0.65 micromolar, read-out: PERCENT INHIBITION @) was determined as 50%. The inhibition at 0.72 µM on cPLA2 (CONCENTRATION 0.72 micromolar, read-out: PERCENT INHIBITION @) is 50%. Besides, on cPLA2 (CONCENTRATION 0.76 micromolar, read-out: PERCENT INHIBITION @), the inhibition at 0.76 µM came out at 50%. For the same compound, on cPLA2 (read-out: PERCENT INHIBITION @), the inhibition at 0.85 µM worked out at 50%. Further, on cPLA2 (CONCENTRATION 6.25 micromolar, read-out: PERCENT INHIBITION @), the inhibition at 6.25 µM was determined as 90%. Moreover, in experiment [1], the inhibition in vivo at 2 mg/kg is 7.05% and the inhibition in vivo at 10 mg/kg was determined as 6.88%.

`COc1cc(C(=O)NS(=O)(=O)C(F)(F)F)ccc1Cc1cn(C(c2ccccc2)c2ccccc2)c2ccc(NC(=O)C3CCCC3)cc12` [Example 40, N-{1-benzhydryl-3-[2-methoxy-4-({[(trifluoromethyl)sulfonyl]amino}carbonyl)benzyl]-1H-indol-5-yl}cyclopentanecarboxamide]: the “PERCENT INHIBITION @” value at cPLA2 (CONCENTRATION 2.5 micromolar) turned out to be 55%. Moreover, on cPLA2 (setting [2]), the inhibition at 2.5 µM worked out at 50%. Besides, the inhibition at 3 µM at cPLA2 (CONCENTRATION 3 micromolar, read-out: PERCENT INHIBITION @) stood at 50%. Moreover, the inhibition at 3.6 µM on cPLA2 (CONCENTRATION 3.6 micromolar, read-out: PERCENT INHIBITION @) stood at 50%. Further, in experiment [1], the inhibition in vivo at 5 mg/kg came to 8.21%.

Turning to `O=C(O)CCc1cn(C(c2ccccc2)c2ccccc2)c2ccc(NC(=O)C3CCCC3)cc12` [Example 84, 3-{1-benzhydryl-5-[(cyclopentylcarbonyl)amino]-1H-indol-3-yl}propanoic acid], the inhibition at 100 µM on cPLA2 (setting [3]) is 22%. On cPLA2 (CONCENTRATION 265 micromolar, read-out: PERCENT INHIBITION @), the inhibition at 265 µM was found to be 50%. Further, the inhibition at 350 µM at cPLA2 (CONCENTRATION 350 micromolar, read-out: PERCENT INHIBITION @) is 50%. For the same compound, in experiment [1], the inhibition in vivo at 5 mg/kg stood at 6.15%.

Turning to `COc1cc(C(N)=O)ccc1Cc1cn(C(c2ccccc2)c2ccccc2)c2ccc(NC(=O)OC3CCCC3)cc12` [Example 97, Cyclopentyl-N-{3-[4-(aminocarbonyl)-2-methoxybenzyl]-1-benzhydryl-1H-indol-5-yl}carbamate], on cPLA2 (CONCENTRATION 50 micromolar, read-out: PERCENT INHIBITION @), the inhibition at 50 µM turned out to be 50%. The inhibition at 80 µM on cPLA2 (CONCENTRATION 80 micromolar, read-out: PERCENT INHIBITION @) was determined as 50%. Besides, on cPLA2 (CONCENTRATION 94 micromolar, read-out: PERCENT INHIBITION @), the inhibition at 94 µM was 50%. Also, the inhibition in vivo at 5 mg/kg in experiment [1] is 21.3%.

For `COc1cc(C(=O)O)ccc1Cc1cn(C(c2ccccc2)c2ccccc2)c2ccc(NC(=O)C3CCCC3)cc12` [Example 11, 4-({1-benzhydryl-5-[(cyclopentylcarbonyl)amino]-1H-indol-3-yl}methyl)-3-methoxybenzoic acid], the inhibition at 10 µM at cPLA2 (CONCENTRATION 10 micromolar, read-out: PERCENT INHIBITION @) was found to be 42%. In addition, the inhibition at 12 µM at cPLA2 (CONCENTRATION 12 micromolar, read-out: PERCENT INHIBITION @) amounted to 50%. The inhibition at 12.5 µM at cPLA2 (CONCENTRATION 12.5 micromolar, read-out: PERCENT INHIBITION @) was determined as 52%. Further, the inhibition at 20 µM on cPLA2 (CONCENTRATION 20 micromolar, read-out: PERCENT INHIBITION @) was 36%. The inhibition at 27.5 µM at cPLA2 (CONCENTRATION 27.5 micromolar, read-out: PERCENT INHIBITION @) was 50%. Besides, the inhibition at 30 µM at cPLA2 (read-out: PERCENT INHIBITION @) came out at 50%. Also, the inhibition at 37 µM at cPLA2 (CONCENTRATION 37 micromolar, read-out: PERCENT INHIBITION @) is 50%. In addition, in experiment [1], the inhibition in vivo at 5 mg/kg amounted to 14%.

In the case of `COc1cc(C(=O)NS(=O)(=O)c2ccccc2C)ccc1Cc1cn(C(C)C)c2ccc(NC(=O)OC3CCCC3)cc12` [Example 24, Cyclopentyl N-{1-isopropyl-3-[2-methoxy-4-({[(2-methylphenyl)sulfonyl]amino}carbonyl)benzyl]-1H-indol-5-yl}carbamate], on cPLA2 (CONCENTRATION 100 micromolar), the “PERCENT INHIBITION @” value is given as 50%. The inhibition at 100 µM on cPLA2 (setting [3]) is 42%. Besides, the inhibition in vivo at 5 mg/kg in experiment [1] came out at 8.33%.

In the case of `CS(=O)(=O)NC(=O)CCc1cn(C(c2ccccc2)c2ccccc2)c2ccc(NC(=O)C3CCCC3)cc12` [Example 85, N-(1-benzhydryl-3-{3-[(methylsulfonyl)amino]-3-oxopropyl}-1H-indol-5-yl)cyclopentanecarboxamide], the inhibition at 100 µM at cPLA2 (setting [3]) was 31%. Also, the inhibition at 200 µM at cPLA2 (CONCENTRATION 200 micromolar, read-out: PERCENT INHIBITION @) worked out at 50%. In addition, the inhibition in vivo at 5 mg/kg in experiment [1] was 7.13%.
